The nature of data set [1]: MTT assay, toxicity on HDFa cells. In kind it is cell-based. As to conditions: human, normalized to non-treated cells, read-out: Cell viability. Here is the method: Toxicity of cycled peptides A and B was analyzed on human dermal fibroblasts (HDFa) and adult human epidermal keratinocytes HEKa cells by MTT assay. A stock solution of the peptide was prepared in distilled water at 25 mg/mL. This stock solution was further diluted to obtain the final working concentrations (0.001, 0.005, 0.01, 0.05, 0.1 and 0.5 mg/mL) in the corresponding culture medium. Untreated cells were used as negative control samples (Basal).
Briefly, HEKa and HDFa cells were seeded in 96-well plates at a concentration of 1×10^5 cells/mL in a final volume of 200 µL of medium (20,000 cells/well). HEKa cells were incubated in Dermal Cell Basal Medium supplemented with the Keratinocytes Growth Kit; and HDFa cells were cultured in Medium 106 supplemented with 2% of LSGS. Cells were incubated at 37°C, 5% CO2 and saturated humidity.
After 24 h of incubation, cells were treated with different concentrations of each peptide (0.001, 0.005, 0.01, 0.05, 0.1 and 0.5 mg/mL) in triplicates, for MTT evaluation. After 24 h of treatment with the peptide, medium was completely removed, and 100 µL of 0.5 mg/mL MTT solution in supplemented medium were added to each well and cells were incubated at 37°C for 3 h. After incubating with MTT, the medium of each well was aspirated and 150 µL of DMSO were added in order to solubilise the formazan crystals formed. The plates were placed on a shaker for 5 minutes for complete solubilisation of the crystals and then the absorbance at 570 nm of each well was determined, using the microplate reader Multiskan FC, which is directly proportional to the number of living cells in culture.
Absorbance values were normalized using the data obtained for non-treated cells (control), obtaining the % of viability shown in Tables 1 and 2. Each condition was performed in triplicate (n=3) in 3 independent experiments (N=3).
Concentrations of peptide for which viability is above 80% are considered safe for efficacy testing. On the contrary, concentrations for which viability goes below 80% are considered potentially toxic and are not used for efficacy testing purposes. Table 1: Toxicity of cycled peptides on HDFa cells.
(In general: Formazan colour is commonly taken as a measure of viable cells.)

The next data set deals with TGFBR3. Kind of data set: RT-qPCR expression of aging-related gene TGFBR3 in HDFa. In kind it is cell-based, human. Particulars: 0.05 mg/mL, 6 h. On the technique in general: Quantitative PCR measures a nucleic acid by following its amplification.
Another data set deals with MMP3 and MMP1. Kind of data set: qPCR expression of metalloproteases in HDFa. The data set is classed as cell-based, human. As to conditions: 24 hours, 0.01 mg/mL, compared with linear form (Figure 6C). Here is the method: (§1) HDFa cells were seeded in duplicate (n=2) in 12-well plates at a concentration of 200.000 cells/well in 106 Medium supplemented with 2% LSGS. Then, cells were incubated at 37 °C in a humidified atmosphere with 5% CO2. Next, cells were treated with cycled peptide B at different non-toxic concentrations for 6 or 24 hours. Untreated cells were used as basal control. Cells were then lysed, and replicates were pooled together for RNA extraction using Qiagen RNeasy Mini kit following manufacturer's instructions. Purified RNAs was then quantified by nanodrop, adjusted in concentration and processed for retrotranscription to cDNA using a commercially available kit (High-Capacity cDNA Reverse Transcription kit - Thermofisher Scientific, USA). Resulting cDNA was used to perform a RTqPCR using Taqman technology, and a panel of probes designed to target different type of collagens and their respective matrix metalloproteinases.
Metalloproteases (MMP) are enzymes responsible of extracellular matrix degradation, also important in skin aging. The expression of MMP genes in HDFa cells was measured by qPCR after 24 hours of treatment with 0.01 mg/mL of peptide B and its linear form.

The test system of another data set is FN. Description: RT-qPCR expression of aging-related gene FN in HEKa. As to conditions: 0.01 mg/mL, 24 h. The data set is classed as cell-based, human.
Data set [2] has as its system COL3A1, COL5A1, COL6A1, COL7A1, COL1A1 and COL4A1. Kind of data set: qPCR expression of collagen genes in HDFa. As to conditions: 6 hours, 0.001 mg/mL (COL3A1, COL5A1, COL6A1, COL7A1) or 0.1 mg/mL (COL1A1, COL4A1), compared with linear form (Figure 6A, 6B). In kind it is cell-based, human. Here is the method:
as §1
The expression of collagen genes in HDFa cells was measured by qPCR.

For another data set, the system named is ITGB1. Description: RT-qPCR expression of aging-related gene ITGB1 in HEKa. The data set is classed as cell-based, human. Particulars: 0.01 mg/mL, 24 h.
A further data set deals with Caspase 3 (CASP3). Kind of data set: Caspase 3 activity under BFA-induced endoplasmic reticulum stress in HEKa (Caspase-Glo 3/7). As to conditions: BFA-induced ER stress, 24 h, vs BFA-treated cells (Figure 5). The data set is classed as cell-based, human. Here is the method:
Caspase 3 (CASP3) is a protein member of the cysteine-aspartic acid protease family. Sequential activation of caspases plays a central role in the execution-phase of cell apoptosis. It was evaluated the effect of the cycled peptide B on the caspase 3 activity in human epidermal keratinocytes from adult (HEKa) subjected to endoplasmic reticulum (ER) stress.
HEKa cells were seeded in a black 96-well plate at a density of 18.000 cell/well in Dermal Cell Basal Medium (DCBM) and incubated at 37 °C in a humidified atmosphere with 5% CO2. After 24 h of incubation, cells were treated with 0.15 µg/mL BFA alone or in the presence of 0.005 mg/mL of the cycled peptide B and returned to the incubator for 24 h more. Untreated cells (Basal) were used as negative control samples. 24 hours after treatment, caspase 3 activity was evaluated using Caspase-Glo® 3/7 Assay System, following manufacturer instructions.
Each condition was performed at least in triplicates (n=3) in three independent experiments (N=3). For all data, mean values of relative fluorescence units (RFU) of the different experiments and SEM values are shown. All data was normalized as follows: % vs BFA = (RFU treated cells)/(RFU BFA treated cells) × 100 [formula]
Statistical data analysis was performed using Student t-test by comparison of % activity from test substance vs BFA-treated cells, *p<0.05, **p<0.01, ***p<0.001.

For another data set, the system named is CALR. Description: RT-qPCR expression of CALR gene in HEKa. As to conditions: 0.01 mg/mL.

Like-named read-outs stand apart in the source and are kept apart here.

Description for CALR: HEKa cells were incubated in the presence of 0.01 mg/mL cycled peptide B for 24 hours and HDFa cells were treated with 0.05 mg/mL of cycled peptide B for 6 h. Then, cells were lysed, and RNA was extracted (RNeasy mini kit, Qiagen). Purified RNAs were retro-transcribed (High-capacity cDNA reverse transcription kit, Applied Biosystems). RT-qPCR was performed with the panel of TaqMan assay probes (Thermo Fisher Scientific) using StepOne plus Real time PCR instrument. […] The obtained data were analyzed using the ΔΔCt method, which provides the target gene expression values as fold changes in the treated sample compared with an untreated basal sample. Both samples were normalized with the relative expression of the housekeeping gene GAPDH.
Additionally, expression of CALR after treatment with 0.01 mg/mL of cycled peptides A and B for 24 hours in HEKa cells was analyze by qPCR as described in example 3.
Description for FN: (§2) Then, cells were lysed, and RNA was extracted (RNeasy mini kit, Qiagen). Purified RNAs were retro-transcribed (High-capacity cDNA reverse transcription kit, Applied Biosystems). RT-qPCR was performed with the panel of TaqMan assay probes (Thermo Fisher Scientific) using StepOne plus Real time PCR instrument. […] The obtained data were analyzed using the ΔΔCt method, which provides the target gene expression values as fold changes in the treated sample compared with an untreated basal sample. Both samples were normalized with the relative expression of the housekeeping gene GAPDH.
Description for ITGB1: as §2
Description for TGFBR3: as §2

`CC(C)C[C@@H]1NC(=O)[C@H](C)NC(=O)[C@H](Cc2c[nH]cn2)NC(=O)[C@H](Cc2c[nH]c3ccccc23)NC(=O)[C@H](Cc2ccccc2)NC(=O)[C@H](CCCNC(=N)N)NC1=O` [Peptide B, cyclo-Phe-Trp- His- Ala-Leu-Arg]: the viability – broadly, a per cent measure of how many cells are alive, often set against a control – at 24 h in data set [1] (0.001 mg/mL peptide) came to 100%; in data set [1] (0.005 mg/mL peptide), 99.8%; in data set [1] (0.01 mg/mL peptide), 92.9%; in data set [1] (0.05 mg/mL peptide) it was 91.9%; in data set [1] (0.1 mg/mL peptide) it was 88.2%; in data set [1] (0.5 mg/mL peptide) it was 73.7%. Further, the “Fold change vs. Basal” value in the data set on TGFBR3 was found to be 1.74; in the data set on FN, 1.58; in the data set with ITGB1 it was 1.65; with CALR (CALR, 24 h (Table 3)), 2.67. The Mean normalized expression was found to be 8.00E-03 in the data set with TGFBR3 (normalized to GAPDH); 3.28E-01 in the data set with FN (normalized to GAPDH); 7.16E-01 in the data set with ITGB1 (normalized to GAPDH); 6.83E-01 with CALR (CALR, 24 h, normalized to GAPDH). The “regulation of MMP3 and MMP1 expression” value in the data set with MMP3 and MMP1 is on record as “reduces the expression of enzymes involved in collagen degradation”. Besides, the “expression of collagen genes” value in data set [2] is “improves the induction of collagen-related genes”. Besides, the “caspase 3 activity” value in the data set on Caspase 3 (CASP3) is listed as “significantly reduce”. The “CALR expression, Effect” value in the data set with CALR (24 hours, qPCR (Table 5)) is recorded as “Upregulation”. Moreover, the “CALR expression, Ratio” value with CALR (24 hours, qPCR (Table 5), Basal = 1.00) is 1.78.

The values are drawn from EP4417190A1, “CYCLIC PEPTIDES WITH ANTI-AGING EFFICACY” (Lipotrue, S.L., priority 2023, dated 2024).
